Laboratory results: patent US5059692A, “Novel compounds exhibiting a vasodilating activity and inhibitory activity for platelet aggregation” (priority 1989, dated 1991)
pEC50, pIC50: −log10 of the molar value.

How the values were obtained:
washed platelets = test: Inhibition of Platelets Aggregation (P.A.IC50), collagen-induced, washed platelets, turbidmetric method; assay type: cell-based; conditions: Platelet, human washed platelets, 37° C., 2 min preincubation
Experimental: Inhibition of Platelets Aggregation (P.A.IC50)
Preparation of washed platelets (centrifugation method) Blood drawn from healthy human volunteers was anticoagulated with 1/10 volume of 0.38% sodium citrate. Platelets-rich plasma (PRP) was obtained by centrifugation of whole blood at 700× G for 10 minutes. The resulting PRP was then centrifuged at 1500× G for 10 minutes in the presence of 1/6 volume of ACD solution (2.2% of sodium citrate, 0.8% of citric acid and 2.2% of glucose), and the pellet was suspended with the modified HEPES-Tyrode solution (135 mM NaCl, 2.7 mM KCl, 1 mM MgCl2, 0.1% glucose, and 20 mM HEPES; pH 7.4).
After the platelet suspension was centrifuged again at 1500× G for 5 minutes with 1/6 volume of the ACD solution, the pellet was resuspended with the modified HEPES-Tyrode solution. Then the washed platelet suspension (=300,000 platelets/μl) was obtained.
Measurement of Platelet Aggregation (Turbidmetric Method)
Platelet aggregation was studied by the turbidmetric method with an 4 ch. aggregometer (HEMA tracer 601; Nikoh Bioscience Co., Japan). Test sample (3 μl, appropriate concentration) or vehicle (3 μl) was added to 270 μl of the platelet suspension and incubated at 37° C. with stirring for 2 minutes before the addition of 30 μl collagen ([…]).
Estimation of Inhibitory Action
The extent of aggregation was expressed by the maximum change of light transmission expressed as a percentage, taking the difference between light transmission for the platelet suspension and platelet-poor-plasma as a value of 100%. Percent inhibition of aggregation by a test compound was calculated by dividing the percent aggregation by that observed in the control run, then multiplying by 100. IC50 values were expressed as the concentrations of test compounds which produced 50% inhibition of the platelet aggregation.

rabbit mesenteric artery = test: Vasorelaxant Effect (V.R., ED50), KCl-precontracted mesenteric artery strips; conditions: Oryctolagus cuniculus; rabbit superior mesenteric artery helical strips, precontracted with 20 mM KCl, 37°±0.5° C., cumulative addition
Experimental: Vasorelaxant Effect (V.R., ED50)
Male albino rabbits were killed by exanguination.
The vascular strips were vertically suspended in an organ bath filled with a Krebs-Henseleit solution the temperature of which was maintained at 37°±0.5° C. A mixture of 95% O2 -5% CO2 was constantly bubbled through the bicarbonate-based solution in the organ bath. Mechanical responses of the rabbit mesenteric artery evoked by a high concentration of KCl were measured isometrically using the force-displacement transducer.
After obtaining a reproducible response to KCl, the preparations were precontracted with 20 mM KCl and then relaxed by the cumulative addition of the compounds. The ED50 value was read from a plot of the percentage of the relaxing response (maximum contractile response to KCl was taken as 100%) vs. the log concentration of the compounds.

Row | pIC50 (washed platelets) | pEC50 (rabbit mesenteric artery) | Structure (SMILES)
1 | 6.51 | 5.10 | COC(=O)c1sc2c(c1N)-c1ccccc1CN2c1ccccc1 [compound 10, Methyl 1-amino-4,5-dihydro-4-phenyl-thieno[2,3-c]isoquinoline-2-carboxylate]
2 |  | 5.80 | COC(=O)c1sc2c(c1N=CN(C)C)c1ccccc1c(=O)n2-c1ccccc1C [compound 8, Methyl 1-dimethylaminomethyleneamino-4,5-dihydro-4-(2-methylphenyl)-5-oxo-thieno[2,3-c]isoquinoline-2-carboxylate]
3 | 6.59 |  | COC(=O)c1sc2c(c1N)c1ccsc1c(=O)n2-c1ccccc1 [compound 3, Methyl 1-amino-4,5-dihydro-5-oxo-4-phenyl-dithieno[2,3-b:3',2'-d]pyridine-2-carboxylate]
4 | 6.25 | 5.34 | COC(=O)c1sc2c(c1N)c1ccccc1c(=O)n2-c1ccccc1C [compound 2, Methyl 1-amino-4,5-dihydro-4-(2-methylphenyl)-5-oxo-thieno[2,3-c]isoquinoline-2-carboxylate]

More lines, now with the values behind:

Row | Structure (SMILES) | pIC50 (washed platelets) | pEC50 (rabbit mesenteric artery)
5 | COC(=O)c1sc2c(c1N)c1ccccc1c(=O)n2-c1ccccc1 [compound 1, Methyl 1-amino-4,5-dihydro-5-oxo-4-phenyl-thieno[2,3-c]isoquinoline-2-carboxylate] | 7.64 | 4.70
6 | COC(=O)c1sc2c(c1N)c1ccccc1c(=O)n2-c1ccccc1Cl [compound 4, Methyl 1-amino-4-(2-chlorophenyl)-4,5-dihydro-5-oxo-thieno[2,3-c]isoquinoline-2-carboxylate] | 7.00 | 5.24
7 | COC(=O)c1sc2c(c1N=CN(C)C)c1ccccc1c(=O)n2-c1ccccc1 [compound 7, Methyl 1-dimethylaminomethyleneamino-4,5-dihydro-5-oxo-4-phenyl-thieno[2,3-c]isoquinoline-2-carboxylate] | 4.00 | 4.13
8 | COC(=O)c1sc2c(c1N=C1CCCN1C)c1ccccc1c(=O)n2-c1ccccc1C [compound 9, Methyl 4,5-dihydro-4-(2-methylphenyl)-1-(1-methyl-2-pyrrolidinylideneamino)-5-oxo-thieno[2,3-c]isoquinoline-2-carboxylate] | 4.00 | 5.96
